Consider 35 compounds from patent US20220363673A1, “5-(Thiophen-2-YL)-1 H-Tetrazole Derivative as BCKDK Inhibitors Useful for Treating Various Diseases” (Pfizer Inc., priority 2019, published 2022).

Where a name gives a salt, the structure may show the parent alone.

This experiment concerns the target T1, human BCKDK (Homo sapiens, UniProt O14874).
T1 construct: human BCKDK (residues 31-412 of the protein pre-processing); 6xHis (N, cleaved yes); MBP (N, cleaved yes); TEV protease site (ENLYFQG) (N, cleaved yes); made in house; host or cells: BL21(DE3) E. coli, co-expressed with GroEL-GroES
The experiment is described as follows: In Vitro FRET (TR-FRET) BCKDK activity assay, phosphorylation of BCKDHE1α-E2 fusion substrate. Particulars: geometric mean, two significant figures; 15 μM ATP. Format: biochemical. The method, then: BCKDK protein was generated using a pET vector containing from N- to C-terminus: 6×His, MBP, a TEV protease site (ENLYFQG), a biotin acceptor peptide ([…]), and human BCKDK (residues 31-412 of the protein pre-processing). Protein was co-expressed with GroEL-GroES in BL21(DE3) E. coli in LB media, and protein production was induced with 0.5 mM IPTG and 0.5 mg/mL L-arabinose at an OD600 of 1 and grown for 16 h at 26° C. Bacteria were lysed using a Microfluidizer in 100 mM potassium phosphate pH 7.5, 500 mM NaCl, 0.1 mM EDTA, 1% Tween-20, 0.25% Triton X-100, 10% glycerol, 1 mM DTT, and protease inhibitors. MBP-tagged protein was purified by affinity chromatography using amylose resin, and MBP was removed from BCKDK by TEV protease incubation followed by gel filtration chromatography in 50 mM HEPES pH 7.5, 500 mM NaCl, 300 mM L-Arginine, 2 mM MgCl2, 1 mM DTT, and 10% glycerol.
A pET vector containing E. coli LplA was expressed in BL21(DE3) E. coli in LB media, and protein production was induced with 0.75 mM IPTG at an OD600 of 1 and grown for 16 h at 30° C. Bacteria were lysed using a Microfluidizer in 50 mM sodium phosphate buffer pH 7.5, 350 mM NaCl, 1.5 mM MgCl2, and 1 mM DTT. LplA protein was precipitated from clarified lysate with 1 M ammonium sulfate and further purified by gel filtration chromatography in 50 mM sodium phosphate pH 7.5, 350 mM NaCl, 1.5 mM MgCl2, 1 mM DTT, and 10% glycerol.
The BCKDHE1α-E2 fusion substrate was cloned into a pET vector and contained from N- to C-terminus: the lipoyl binding domain of E2 (residues 62-160 pre-processing), a TEV protease site (LENLYFQG), residues 331-345 (pre-processing) from E1α, and 6×His (Tso, S. C. et al., J Biol Chem 2014, 289 (30), 20583-20593). The fusion substrate was expressed in BL21(DE3) E. coli in LB media, and protein production was induced with 0.75 mM IPTG at an OD600 of 1 and grown for 16 h at 30° C. Bacteria were lysed using a Microfluidizer in 50 mM sodium phosphate pH 7.5, 350 mM NaCl, 10 mM imidazole, 10% glycerol, 1 mM DTT, and protease inhibitors. […] For lipoylation, fusion substrate was incubated with LplA at a 10:1 (substrate:LplA) ratio in 20 mM sodium phosphate pH 7.4, 6 mM MgCl2, 4 mM ATP, 2 mM DTT, 3 mM DL-6,8-thioctic acid at 37° C. The reaction was monitored using an Agilent 6530 Q-TOF coupled to an Agilent 1290 UPLC. The final lipoylated fusion substrate was purified by gel filtration chromatography in 50 mM HEPES pH 7.5, 350 mM NaCl, 1.5 mM MgCl2, 1 mM DTT, 10% glycerol.
BCKDK activity was monitored by phosphorylation of a HIS-tagged fusion BCKDHE1α-E2 substrate protein as described above and was detected using a time resolved-fluorescence resonance energy transfer (TR-FRET) assay system. Compounds were spotted into a 384 well plate, and purified human BCKDK protein was added to the plated compound. After incubation, the LBD-linker-E1 phosphorylation sequence was added in the presence of 15 μM ATP. The reaction was terminated with EDTA. Phosphorylated substrate was recognized by the addition of rabbit anti-E1 phospho Ser293 antibodies (Bethyl Laboratories—A304-672A), and the TR-FRET signal was developed by addition of anti-HIS donor molecules (Europium; Perkin Elmer—AD0205, AD0110, AD0111) and anti-Rabbit acceptor molecules (Ulight; Perkin Elmer—TRF502D, TRF502M, TRF502R). Recognition of phosphorylated E1 brought donor and acceptor molecules into close proximity, and excitation at 320 nm caused energy transfer from the Europium donor to the Ulight acceptor dye, which in turn generated light at 665 nm. Signal intensity was proportional to the level of BCKDK-mediated substrate phosphorylation. Reactions were normalized to zero percent effect with DMSO and one hundred percent effect with 600 μM Radicicol, a known BCKDK inhibitor. IC50 curves were generated using ABASE software (IDBS, Boston Mass.).
Compound `Clc1cc(C2CC2)c(-c2nnn[nH]2)s1` [Example 29, 5-(5-chloro-3-cyclopropylthiophen-2-yl)-1H-tetrazole] gave an IC50 of 10 µM.

In turn, `CCc1c(Cl)csc1-c1nnn[nH]1` [Example 3, 5-(4-Chloro-3-ethylthiophen-2-yl)-1H-tetrazole, ammonium salt] showed an IC50 of 1.1 µM.

As to `Cc1c(-c2nnn[nH]2)sc(Cl)c1Cl` [Example 11, 5-(4,5-Dichloro-3-methylthiophen-2-yl)-1H-tetrazole], the concentration for half-maximal inhibition (IC50) was found to be 1.9 µM.

`Cc1cc(F)sc1-c1nnn[nH]1` [Example 2, 5-(5-Fluoro-3-methylthiophen-2-yl)-1H-tetrazole] gave a half-maximal inhibitory concentration (IC50) of 3.6 µM.

As to `CCc1cc(C)c(-c2nnn[nH]2)s1` [Example 32, 5-(5-ethyl-3-methylthiophen-2-yl)-1H-tetrazole], half-maximal inhibition (IC50) was put at 15 µM.

`Cc1c(-c2nnn[nH]2)sc(Br)c1Br` [Example 18, 5-(4,5-dibromo-3-methylthiophen-2-yl)-1H-tetrazole] gave an IC50 of 4.5 µM.

In turn, `Brc1ccsc1-c1nnn[nH]1` [Example 35, 5-(3-bromothiophen-2-yl)-1H-tetrazole] displayed an IC50 of 1.4 µM.

As for `Fc1cc(Cl)c(-c2nnn[nH]2)s1` [Example 31, 5-(3-chloro-5-fluorothiophen-2-yl)-1H-tetrazole], the IC50 turned out to be 3.6 µM.

Consider `c1cc(C2CC2)c(-c2nnn[nH]2)s1` [Example 26, 5-(3-cyclopropylthiophen-2-yl)-1H-tetrazole], for which the half-maximal inhibitory concentration (IC50) is over 300 µM.

`CCc1cc(Cl)sc1-c1nnn[nH]1` [Example 27, 5-(5-chloro-3-ethylthiophen-2-yl)-1H-tetrazole] gave an IC50 of 4 µM.

`Fc1cc(Br)c(-c2nnn[nH]2)s1` [Example 34, 5-(3-bromo-5-fluorothiophen-2-yl)-1H-tetrazole] gave an IC50 of 2.7 µM.

`CCc1cc(Br)c(-c2nnn[nH]2)s1` [Example 13, 5-(3-Bromo-5-ethylthiophen-2-yl)-1H-tetrazole] registered an IC50 of over 83 µM.

Compound `Cc1cc(Cl)c(-c2nnn[nH]2)s1` [Example 14, 5-(3-chloro-5-methylthiophen-2-yl)-1H-tetrazole] had an IC50 of 2.6 µM.

As for `Clc1ccsc1-c1nnn[nH]1` [Example 7, 5-(3-chlorothiophen-2-yl)-1H-tetrazole], the 50% inhibitory concentration (IC50) is 11 µM.

Turning to `FC(F)c1cc(Cl)sc1-c1nnn[nH]1` [Example 6, 5-[5-Chloro-3-(difluoromethyl)thiophen-2-yl]-1H-tetrazole], the IC50 was determined as 1.1 µM.

`Cc1c(-c2nnn[nH]2)sc(Cl)c1F` [Example 10, 5-(5-Chloro-4-fluoro-3-methylthiophen-2-yl)-1H-tetrazole]: the IC50 amounted to 0.81 µM.

`Clc1cc(Br)c(-c2nnn[nH]2)s1` [Example 19, 5-(3-bromo-5-chlorothiophen-2-yl)-1H-tetrazole] displayed an IC50 of 4.1 µM.

`Cc1cc(C(F)F)sc1-c1nnn[nH]1` [Example 21, 5-[5-(difluoromethyl)-3-methylthiophen-2-yl]-1H-tetrazole]: it took 3.6 µM to reach half-maximal inhibition (IC50).

In turn, `COc1ccsc1-c1nnn[nH]1` [Example 24, 5-(3-methoxythiophen-2-yl)-1H-tetrazole] came in with an IC50 of over 300 µM.

In turn, `Cc1ccsc1-c1nnn[nH]1` [Example 36, 5-(3-methylthiophen-2-yl)-1H-tetrazole] showed an IC50 of 6 µM.

Take `CCc1ccsc1-c1nnn[nH]1` [Example 25, 5-(3-ethylthiophen-2-yl)-1H-tetrazole]: the midpoint of inhibition, the IC50, lay at 9.8 µM.

`Brc1csc(-c2nnn[nH]2)c1Br` [Example 17, 5-(3,4-dibromothiophen-2-yl)-1H-tetrazole] had a half-maximal inhibitory concentration (IC50) of 6.1 µM.

For the compound `Cc1cc(Br)sc1-c1nnn[nH]1` [Example 33, 5-(5-bromo-3-methylthiophen-2-yl)-1H-tetrazole], the half-maximal inhibitory concentration (IC50) came out at 3.1 µM.

On to `COc1cc(Br)sc1-c1nnn[nH]1` [Example 16, 5-(5-bromo-3-methoxythiophen-2-yl)-1H-tetrazole], for which the IC50 stood at 4.5 µM.

In turn, `Oc1ccsc1-c1nnn[nH]1` [Example 37, 2-(1H-tetrazol-5-yl)thiophene-3-ol] registered an IC50 of 13 µM.

Regarding `Cc1cc(C(F)(F)F)sc1-c1nnn[nH]1` [Example 20, 5-[3-methyl-5-(trifluoromethyl)thiophen-2-yl]-1H-tetrazole], inhibition was half-maximal at 3.7 µM (IC50).

Regarding `Clc1cc(Br)sc1-c1nnn[nH]1` [Example 8, 5-(5-Bromo-3-chlorothiophen-2-yl)-1H-tetrazole], inhibition was half-maximal at 3.4 µM (IC50).

In turn, `CCc1c(Br)csc1-c1nnn[nH]1` [Example 4, 5-(4-Bromo-3-ethylthiophen-2-yl)-1H-tetrazole, ammonium salt] returned an IC50 of 1.1 µM.

Compound `FC(F)(F)c1ccsc1-c1nnn[nH]1` [Example 22, 5-[3-(trifluoromethyl)thiophen-2-yl]-1H-tetrazole] showed a half-inhibitory concentration (IC50) of 11 µM.

`FC(F)(F)c1cc(Cl)sc1-c1nnn[nH]1` [Example 23, 5-[5-chloro-3-(trifluoromethyl)thiophen-2-yl]-1H-tetrazole]: the half-maximal inhibitory concentration (IC50) came to 7.2 µM.

`Oc1cc(Br)sc1-c1nnn[nH]1` [Example 15, 5-bromo-2-(1H-tetrazol-5-yl)thiophene-3-ol] had an IC50 of 13 µM.

The compound `FC(F)c1ccsc1-c1nnn[nH]1` [Example 5, 5-[3-(Difluoromethyl)thiophen-2-yl]-1H-tetrazole] registered an IC50 of 2.5 µM.

Regarding `Fc1cc(Cl)sc1-c1nnn[nH]1` [Example 30, 5-(5-chloro-3-fluorothiophen-2-yl)-1H-tetrazole], it took 2.9 µM to reach half-maximal inhibition (IC50).

`Fc1ccsc1-c1nnn[nH]1` [Example 28, 5-(3-fluorothiophen-2-yl)-1H-tetrazole]: 16 µM corresponded to half-maximal inhibition (IC50).

Compound `Clc1cc(Cl)c(-c2nnn[nH]2)s1` [Example 12, 5-(3,5-Dichlorothiophen-2-yl)-1H-tetrazole, ammonium salt] gave an IC50 of 2 µM.
